{"source": "patent US20160214983A1", "about": "“3,7-DIAZABICYCLO[3.3.1]NONANE CARBOXAMIDES AS ANTITHROMBOTIC AGENTS” (COUNCIL OF SCIENTIFIC & INDUSTRIAL RESEARCH, priority 2013, published 2016)", "key": {"[1]": {"test": "Tail bleeding time in mice"}, "[2]": {"tested_on": "ferric chloride induced arterial thrombosis", "test": "FeCl3 induced carotid artery thrombosis in mice", "type": "in vivo", "experimental": "Male Swiss albino mice were anesthetized byurethane (1.25 g/kg, i.p.). The carotid artery was carefully dissected and a pulsed Doppler Probe (LDF 100C, BioPac, USA) was placed around it to record the blood flow velocity and patency of the blood vessels. The carotid artery thrombosis was induced by FeCl3 as follows: a square (1×0.5 mm) of Whatman Chromatography paper was immersed in 10% FeCl3 solution for 5 min and placed on the carotid artery as described earlier. (Kurz K D, et al., Thromb Res 1990; 60(4):269-80; Surin W R et al J Pharmacol Toxicol Methods. 2010; 61(3):287-91) Thrombosis was monitored as the reduction in carotid artery blood flow. The time at which the blood-flow velocity was decreased to zero was recorded as the time to occlusion (TTO) of the carotid artery."}, "[3]": {"tested_on": "human platelets", "test": "Arachidonic acid induced platelet aggregation (COX pathway)", "type": "cell-based"}, "[4]": {"tested_on": "human plasma", "test": "Coagulability of blood by TT, PT and aPTT in human plasma"}, "[5]": {"tested_on": "human platelets", "test": "Collagen related peptide (CRP-XL) induced platelet aggregation", "type": "cell-based", "details": "up to 300 μM"}, "[6]": {"tested_on": "collagen plus epinephrine induced pulmonary thromboembolism", "test": "Collagen-epinephrine induced pulmonary thromboembolism in mice", "type": "in vivo", "experimental": "To assess the antithrombotic efficacy of compounds, mice were grouped into vehicle, aspirin and compound treated groups, and each group included ten animals. Pulmonary thromboembolism was induced by injecting a mixture of collagen (150 μg/ml) and adrenaline (50 μg/ml) into the tail vein to achieve final doses of collagen (1.5 mg/kg) and adrenaline (0.5 mg/kg) to induce hind limb paralysis or death.^11, 12 Number of test animals killed or paralyzed were evaluated (death/paralysis were employed as endpoint to evaluate antithrombotic agents). The percent protection was calculated by taking the ratio of number of test animals killed or paralyzed to that of total tested animals. Results have been reported as percentage protection, which represents protection against collagen and epinephrine induced thromboembolism and expressed as;\nPercent Protection=[1−(Ptest/Pcontrol)]×100\nWhere, Ptest is the number of animals paralyzed/dead in test compound-treated group, and Pcontrol is the total number of animals paralyzed/dead in vehicle treated group. The percent protection refers to the number of animals in compound treated group that were prevented from paralysis/death."}, "[7]": {"tested_on": "human platelets", "test": "ADP induced platelet aggregation", "type": "cell-based", "details": "up to 300 μM"}, "[8]": {"tested_on": "human platelets", "test": "U46619 (thromboxane receptor agonist) induced platelet aggregation", "type": "cell-based"}, "[9]": {"tested_on": "human platelets", "test": "TRAP (thrombin mimetic SFLLRN) induced platelet aggregation", "type": "cell-based", "details": "up to 300 μM"}, "[10]": {"tested_on": "human platelets", "test": "Ristocetin induced platelet aggregation", "type": "cell-based", "details": "up to 300 μM"}}, "data": [{"smiles": "O=C([C@@H]1CCC(=O)N1Cc1ccccc1Br)N1CC2CC(CN(Cc3ccccc3)C2)C1", "note": "[Compound 1d, 5-(7-Benzyl-3,7-diaza-bicyclo[3.3.1]nonane-3-carbonyl)-1-(2-bromo-benzyl)-pyrrolidin-2-one]", "values": [{"measurement": "effect on bleeding tendency", "setting": "[1]; 1 hr after oral dosing, compared against aspirin and clopidogrel", "value": "mild effect"}, {"measurement": "bleeding time", "setting": "[1]; after 4 hrs (oral), method doses aspirin 170 μM/kg, Clopidogrel 70 μM/kg", "value": 8.4, "unit": "min"}, {"measurement": "prolongation of time to occlusion vs control", "setting": "[2]; 4 hr after oral administration", "value": 2.2, "unit": "fold"}, {"measurement": "time to occlusion (TTO) of carotid artery", "setting": "[2]; 1d 4 hr after oral administration, control 9.5±0.4 min", "value": "19.2 ± 0.9", "unit": "min"}, {"measurement": "inhibition of arachidonic acid induced platelet aggregation", "setting": "[3]; 30 μM", "value": "did not exhibit any inhibition"}, {"measurement": "attenuation of arachidonic acid induced platelet aggregation", "setting": "[3]; 300 μM and 500 μM", "value": "≤ 50", "unit": "%"}, {"measurement": "coagulability of blood as assessed by TT, PT and aPTT", "setting": "[4]", "value": "did not alter the coagulability of blood"}, {"measurement": "effect against CRP-XL induced platelet aggregation", "setting": "[5]", "value": "did not exhibit any significant effect"}, {"measurement": "inhibition in vivo at 30 µM, 30 µmol/kg", "setting": "[6]; Mus musculus, po, 1 h, read-out: Protection (%)", "value": 40, "unit": "%"}, {"measurement": "protection in collagen-epinephrine induced pulmonary thromboembolism", "setting": "[6]; mice, after 4 hours (p.o.), 30 μM/kg", "value": "≤ 60", "unit": "%"}, {"measurement": "effect against ADP induced platelet aggregation", "setting": "[7]", "value": "did not exhibit any significant effect"}, {"measurement": "inhibition at 30 µM", "setting": "[8]", "value": "75.5 ± 6", "unit": "%"}, {"measurement": "effect against TRAP induced platelet aggregation", "setting": "[9]", "value": "did not exhibit any significant effect"}, {"measurement": "effect against Ristocetin induced platelet aggregation", "setting": "[10]", "value": "did not exhibit any significant effect"}]}]}
